This is an account of results in patent US20120178765A1, “NOVEL GLUCOKINASE ACTIVATORS AND PROCESSES FOR THE PREPARATION THEREOF” (YUHAN CORPORATION, priority 2009, published 2012).

For this test, the target named is T1, Glucokinase (Homo sapiens, UniProt P35557).
T1 construct: purchased ProteinOne Inc
T1 sequence (P35557 1-465): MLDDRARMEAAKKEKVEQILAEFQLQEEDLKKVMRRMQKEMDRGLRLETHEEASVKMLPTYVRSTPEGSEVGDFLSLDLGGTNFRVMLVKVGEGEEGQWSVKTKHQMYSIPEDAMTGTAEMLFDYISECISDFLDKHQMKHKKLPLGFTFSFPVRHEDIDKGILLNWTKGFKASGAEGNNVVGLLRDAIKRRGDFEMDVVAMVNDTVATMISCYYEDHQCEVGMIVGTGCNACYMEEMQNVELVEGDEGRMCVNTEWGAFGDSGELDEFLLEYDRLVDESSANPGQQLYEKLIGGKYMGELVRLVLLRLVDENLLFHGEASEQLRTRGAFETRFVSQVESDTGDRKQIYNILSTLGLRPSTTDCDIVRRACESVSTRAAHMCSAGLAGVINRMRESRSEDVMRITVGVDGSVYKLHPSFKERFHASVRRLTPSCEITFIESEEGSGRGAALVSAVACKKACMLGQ
Kind of test: Glucokinase activation assay (NADPH absorbance at 340 nm). Format: biochemical. As to conditions: glucokinase (ProteinOne Inc.), 5 mM D(+)-glucose, 24° C., 90 minutes. How it is done: The amounts of glucokinase activation were determined by measuring the levels of NADPH (the final metabolite of glucose through glucokinase-mediated phospho-rylation) and then calculating to glucokinase activities.
Glucokinase (ProteinOne Inc.) was added, in the concentration of 100 ng/uL, to a enzyme-reaction medium (25 mM HEPES pH 7, 25 mM KCL, 1 mM MgCl, 5 mM D(+)-glucose, 1 mM ATP, 1 mM NADP, 1 mM DTT, and 2.5 u/mL G6PDH). Each compound in predetermined concentrations was added to the enzyme-reaction medium and then absorbance (First Absorbance) was measured at 340 nm of wavelength. After measuring the first absorbance, each reaction mixture was incubated at 24° C. for 90 minutes and then absorbance (Second Absorbance) was re-measured at 340 nm of wavelength. Using changes between First Absorbance and Second Absorbance, glucokinase activity was calculated. In the calculation, a maximum activity of the test compound (Emax), in comparison to the control group (no treatment of compound) was determined and then EC50 was calculated using the software for statistical analysis “Prism”, based on the activity-changes according to concentrations of the test compounds.
The amounts of glucokinase activation of the compounds of Comparative Examples 1 and 2 were determined, in accordance with the same procedures as in Test Example 1.

“3-[trans-2-(2,4-difluorophenyl)vinyl]-5-(2-methoxy-(1S)-methyl-ethoxy)-N-(pyrazin-2-yl)-benzamide [Example 56]” gave an EC50 of 0.301 µM. For the substance “3-[trans-2-(2,4-difluorophenyl)vinyl]-5-(2-methoxy-(1S)-methyl-ethoxy)-N-(thiazol-2-yl)-benzamide [Example 10]”, the response was half-maximal at 0.0552 µM (EC50). Turning to “3-[trans-2-(2,5-difluorophenyl)vinyl]-5-(2-methoxy-(1S)-methyl-ethoxy)-N-(1-methyl-1H-pyrazol-3-yl)-benzamide [Example 36]”, the concentration giving a half-maximal response (EC50) turned out to be 0.2 µM. For “3-[trans-2-(2,5-difluorophenyl)vinyl]-5-(2-methoxy-(1S)-methyl-ethoxy)-N-(5-fluorothiazol-2-yl)-benzamide [Example 26]”, the EC50 was 0.0465 µM.

Substance “3-[trans-2-(2,5-difluorophenyl)vinyl]-5-(2-methoxy-(1S)-methyl-ethoxy)-N-(pyrazin-2-yl)-benzamide [Example 57]” registered a 50% effective concentration (EC50) of 0.283 µM. Take “3-[trans-2-(2,5-difluorophenyl)vinyl]-5-(2-methoxy-(1S)-methyl-ethoxy)-N-(thiazol-2-yl)-benzamide [Example 11]”: the EC50 was 0.0309 µM.

On to “3-[trans-2-(2,6-difluorophenyl)vinyl]-5-(2-methoxy-(1S)-methyl-ethoxy)-N-(pyrazin-2-yl)-benzamide [Example 58]”, for which the EC50 was found to be 0.212 µM.

The substance “3-[trans-2-(2,6-dimethoxyphenyl)vinyl]-5-(2-methoxy-(1S)-methyl-ethoxy)-N-(5-fluorothiazol-2-yl)-benzamide [Example 29]” displayed an EC50 of 0.128 µM. To “3-[trans-2-(2-bromophenyl)vinyl]-5-(2-methoxy-(1S)-methyl-ethoxy)-N-(1-methyl-1H-pyrazol-3-yl)-benzamide [Example 43]” belongs 0.322 µM; to “3-[trans-2-(2-chlorophenyl)vinyl]-5-(2-methoxy-(1S)-methyl-ethoxy)-N-(pyrazin-2-yl)-benzamide [Example 53]”, 0.503 µM; to “3-[trans-2-(2-fluorophenyl)vinyl]-5-(2-methoxy-(1S)-methyl-ethoxy)-N-(1-methyl-1H-pyrazol-3-yl)-benzamide [Example 33]”, 0.0798 µM. On to “3-[trans-2-(2-fluorophenyl)vinyl]-5-(2-methoxy-(1S)-methyl-ethoxy)-N-(5-fluorothiazol-2-yl)-benzamide [Example 22]”, for which the EC50 amounted to 0.0656 µM.

As to “3-[trans-2-(2-fluorophenyl)vinyl]-5-(2-methoxy-(1S)-methyl-ethoxy)-N-(pyrazin-2-yl)-benzamide [Example 51]”, it took 0.238 µM to reach a half-maximal effect (EC50).

Substance “3-[trans-2-(2-methoxyphenyl)vinyl]-5-(2-methoxy-(1S)-methyl-ethoxy)-N-(1-methyl-1 H-pyrazol-3-yl)-benzamide [Example 42]” displayed a concentration for a half-maximal effect (EC50) of 0.115 µM. To “3-[trans-2-(2-methoxyphenyl)vinyl]-5-(2-methoxy-(1S)-methyl-ethoxy)-N-(1-methyl-1H-pyrazol-3-yl)-benzamide [Example 83]” belongs 0.115 µM; to “3-[trans-2-(2-methoxyphenyl)vinyl]-5-(2-methoxy-(1S)-methyl-ethoxy)-N-(5-fluorothiazol-2-yl)-benzamide [Example 82]”, 0.0918 µM. Under “3-[trans-2-(2-methoxyphenyl)vinyl]-5-(2-methoxy-(1S)-methyl-ethoxy)-N-(pyrazin-2-yl)-benzamide [Example 48]” stands 0.281 µM; under “3-[trans-2-(2-methoxyphenyl)vinyl]-5-(2-methoxy-(1S)-methyl-ethoxy)-N-(thiazol-2-yl)-benzamide [Example 16]”, 0.0084 µM. Under “3-[trans-2-(2-nitrophenyl)vinyl]-5-(2-methoxy-(1S)-methyl-ethoxy)-N-(1-methyl-1H-pyrazol-3-yl)-benzamide [Example 32]” stands 0.284 µM; under “3-[trans-2-(2-nitrophenyl)vinyl]-5-(2-methoxy-(1S)-methyl-ethoxy)-N-(5-fluorothiazol-2-yl)-benzamide [Example 19]”, 0.0521 µM; under “3-[trans-2-(3,4-dimethoxyphenyl)vinyl]-5-(2-methoxy-(1S)-methyl-ethoxy)-N-(5-fluorothiazol-2-yl)-benzamide [Example 30]”, 0.132 µM. The substance “3-[trans-2-(3,5-dimethoxyphenyl)vinyl]-5-(2-methoxy-(1S)-methyl-ethoxy)-N-(5-fluorothiazol-2-yl)-benzamide [Example 31]” had an EC50 of 0.0473 µM. The substance “3-[trans-2-(3,5-dimethoxyphenyl)vinyl]-5-(2-methoxy-(1S)-methyl-ethoxy)-N-(pyrazin-2-yl)-benzamide [Example 50]” registered an EC50 of 0.311 µM. Under “3-[trans-2-(3-bromophenyl)vinyl]-5-(2-methoxy-(1S)-methyl-ethoxy)-N-(pyrazin-2-yl)-benzamide [Example 59]” stands 0.377 µM; under “3-[trans-2-(3-chlorophenyl)vinyl]-5-(2-methoxy-(1S)-methyl-ethoxy)-N-(1-methyl-1H-pyrazol-3-yl)-benzamide [Example 47]”, 0.107 µM; under “3-[trans-2-(3-chlorophenyl)vinyl]-5-(2-methoxy-(1S)-methyl-ethoxy)-N-(pyrazin-2-yl)-benzamide [Example 54]”, 0.382 µM. “3-[trans-2-(3-fluorophenyl)vinyl]-5-(2-methoxy-(1S)-methyl-ethoxy)-N-(thiazol-2-yl)-benzamide [Example 7]” showed an EC50 of 0.0484 µM. To “3-[trans-2-(3-nitrophenyl)vinyl]-5-(2-methoxy-(1S)-methyl-ethoxy)-N-(5-fluorothiazol-2-yl)-benzamide [Example 20]” belongs 0.123 µM; to “3-[trans-2-(3-nitrophenyl)vinyl]-5-(2-methoxy-(1S)-methyl-ethoxy)-N-(thiazol-2-yl)-benzamide [Example 14]”, 0.0194 µM; to “3-[trans-2-(4-bromophenyl)vinyl]-5-(2-methoxy-(1S)-methyl-ethoxy)-N-(1-methyl-1H-pyrazol-3-yl)-benzamide [Example 45]”, 0.181 µM. Consider “3-[trans-2-(4-bromophenyl)vinyl]-5-(2-methoxy-(1S)-methyl-ethoxy)-N-(pyrazin-2-yl)-benzamide [Example 60]”, for which the 50% effective concentration (EC50) came out at 0.397 µM. To “3-[trans-2-(4-fluorophenyl)vinyl]-5-(2-methoxy-(1S)-methyl-ethoxy)-N-(1-methyl-1H-pyrazol-3-yl)-benzamide [Example 39]” belongs 0.119 µM; to “3-[trans-2-(4-fluorophenyl)vinyl]-5-(2-methoxy-(1S)-methyl-ethoxy)-N-(5-fluorothiazol-2-yl)-benzamide [Example 23]”, 0.0411 µM; to “3-[trans-2-(4-fluorophenyl)vinyl]-5-(2-methoxy-(1S)-methyl-ethoxy)-N-(pyrazin-2-yl)-benzamide [Example 52]”, 0.42 µM.

In turn, “3-[trans-2-(4-fluorophenyl)vinyl]-5-(2-methoxy-(1S)-methyl-ethoxy)-N-(thiazol-2-yl)-benzamide [Example 8]” gave an EC50 of 0.0864 µM.

As usually defined, the EC50 is the concentration that produces a half-maximal response. Low values mean higher potency in that assay, high ones lower potency in that assay.
